In patent publication US20250268887A1, “THERAPEUTIC USES OF BRADYKININ B2-RECEPTOR ANTAGONISTS” (Pharvaris GmbH, priority 2022, published 2025):

Assay: Elimination half-life
Settings: human, in vivo

A half-life of about 4 h was found for `[2H][C@@](C)(NC(=O)COC(F)F)c1cc(F)cc(Cl)c1COc1cccc2c(-c3ncnn3C)cc(C)nc12` [PHA-022121, (S)-N-(1-deutero-1-(3-chloro-5-fluoro-2-((2-methyl-4-(1-methyl-1H-1,2,4-triazol-5-yl)quinolin-8-yloxy)methyl)phenyl)ethyl)-2-(difluoromethoxy)acetamide] in this work.
